The target in this experiment is T1, ZAP-70 (Homo sapiens, UniProt P43403).
T1 sequence (P43403 1-619): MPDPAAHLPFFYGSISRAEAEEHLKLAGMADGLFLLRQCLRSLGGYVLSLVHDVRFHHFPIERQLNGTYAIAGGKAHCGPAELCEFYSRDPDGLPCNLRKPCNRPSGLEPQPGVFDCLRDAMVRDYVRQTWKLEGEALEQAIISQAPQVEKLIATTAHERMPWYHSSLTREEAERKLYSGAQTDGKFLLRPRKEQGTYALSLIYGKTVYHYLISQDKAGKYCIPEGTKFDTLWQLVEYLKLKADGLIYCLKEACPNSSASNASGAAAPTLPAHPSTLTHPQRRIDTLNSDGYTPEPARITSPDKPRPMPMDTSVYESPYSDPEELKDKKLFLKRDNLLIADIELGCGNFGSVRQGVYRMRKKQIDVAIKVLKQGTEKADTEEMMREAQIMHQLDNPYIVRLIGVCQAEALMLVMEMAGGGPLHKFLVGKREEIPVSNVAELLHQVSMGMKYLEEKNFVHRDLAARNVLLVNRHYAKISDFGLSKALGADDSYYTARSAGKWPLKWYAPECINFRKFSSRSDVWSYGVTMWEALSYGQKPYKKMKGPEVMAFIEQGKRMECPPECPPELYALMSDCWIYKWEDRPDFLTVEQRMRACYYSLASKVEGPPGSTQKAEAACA
Briefly: DELFIA assay (ZAP-70 kinase, phosphorylation of biotinylated poly(glu,tyr)). The experiment is classed as biochemical. To be noted: ZAP-70 DELFIA, class symbols; read-out: Activity (IC50 in vitro). The procedure, abridged: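 3.1 nM ZAP-70 pre-incubated 10 min at room temperature with compound ([…]) and 62.5 nM biotinylated poly(glu,tyr) in 62.5 mM Mops pH 7.0, 12.5 mM MgCl2, 12.5% glycerol, 6.25% DMSO (pre-incubation concentrations); ATP added from 5 mM stock, 30 min reaction, EDTA stop. Phosphorylation read by DELFIA europium anti-phosphotyrosine fluorescence (340/615).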

For orientation: IC50 means the concentration that inhibits the measured activity by half.

As for `Cc1ccccc1CNc1cc(C(=O)N2CCC[C@H]2CN2CCCC2)c2cc(-c3ccc(C#N)cc3)ccc2n1` [Compound 172], the IC50 was more than 10 µM. With `Cc1ccc(CCNc2cc(C(=O)N3CCC[C@H]3CN3CCCC3)c3cc(-c4ccc(C#N)cc4)ccc3n2)cc1` [Compound 173] the figure was more than 10 µM; with `N#Cc1ccc(-c2ccc3nc(NCCc4ccc(Cl)cc4)cc(C(=O)N4CCC[C@H]4CN4CCCC4)c3c2)cc1` [Compound 174], more than 10 µM; with `CN(CCc1ccccc1)c1cc(C(=O)N2CCC[C@H]2CN2CCCC2)c2cc(-c3ccc(C#N)cc3)ccc2n1` [Compound 175], more than 10 µM.

Take `C[C@H](Nc1cc(C(=O)N2CCC[C@H]2CN2CCCC2)c2cc(-c3ccc(C#N)cc3)ccc2n1)c1ccccc1` [Compound 176]: the IC50 was more than 10 µM.

Turning to `COc1ccc(CCNc2cc(C(=O)N3CCC[C@H]3CN3CCCC3)c3cc(-c4ccc(C#N)cc4)ccc3n2)cc1` [Compound 177], the IC50 is more than 10 µM. With `Cc1ccc(CNc2cc(C(=O)N3CCC[C@H]3CN3CCCC3)c3cc(-c4ccc(C#N)cc4)ccc3n2)cc1` [Compound 178] the figure was more than 10 µM; with `N#Cc1ccc(-c2ccc3nc(NCc4ccc(F)c(Cl)c4)cc(C(=O)N4CCC[C@H]4CN4CCCC4)c3c2)cc1` [Compound 179], more than 10 µM; with `N#Cc1ccc(-c2ccc3nc(NCc4ccc(Cl)cc4F)cc(C(=O)N4CCC[C@H]4CN4CCCC4)c3c2)cc1` [Compound 180], more than 10 µM. Turning to `N#Cc1ccc(-c2ccc3nc(NCc4ccccc4Br)cc(C(=O)N4CCC[C@H]4CN4CCCC4)c3c2)cc1` [Compound 181], the IC50 is more than 10 µM. To `N#Cc1ccc(-c2ccc3nc(N[C@@H]4CCc5ccccc54)cc(C(=O)N4CCC[C@H]4CN4CCCC4)c3c2)cc1` [Compound 182] belongs more than 10 µM; to `N#Cc1ccc(-c2ccc3nc(N[C@H]4CCc5ccccc54)cc(C(=O)N4CCC[C@H]4CN4CCCC4)c3c2)cc1` [Compound 183], more than 10 µM. With `CC[C@@H](Nc1cc(C(=O)N2CCC[C@H]2CN2CCCC2)c2cc(-c3ccc(C#N)cc3)ccc2n1)c1ccccc1` [Compound 184] the figure was more than 10 µM. For `COC[C@H](Cc1ccccc1)Nc1cc(C(=O)N2CCC[C@H]2CN2CCCC2)c2cc(-c3ccc(C#N)cc3)ccc2n1` [Compound 185], the IC50 was more than 10 µM. With `C[C@@H](CNc1cc(C(=O)N2CCC[C@H]2CN2CCCC2)c2cc(-c3ccc(C#N)cc3)ccc2n1)c1ccccc1` [Compound 186] the figure was more than 10 µM; with `C[C@H](CNc1cc(C(=O)N2CCC[C@H]2CN2CCCC2)c2cc(-c3ccc(C#N)cc3)ccc2n1)c1ccccc1` [Compound 187], more than 10 µM.

Take `N#Cc1ccc(-c2ccc3nc(NCc4cc(F)cc(F)c4)cc(C(=O)N4CCC[C@H]4CN4CCCC4)c3c2)cc1` [Compound 188]: the IC50 is more than 10 µM. As for `N#Cc1ccc(-c2ccc3nc(NCc4cc(Cl)cc(Cl)c4)cc(C(=O)N4CCC[C@H]4CN4CCCC4)c3c2)cc1` [Compound 189], the IC50 was more than 10 µM. As to `N#Cc1ccc(-c2ccc3nc(NCc4cccc(OC(F)(F)F)c4)cc(C(=O)N4CCC[C@H]4CN4CCCC4)c3c2)cc1` [Compound 190], the IC50 is more than 10 µM. With `N#Cc1ccc(-c2ccc3nc(NCCc4ccccc4F)cc(C(=O)N4CCC[C@H]4CN4CCCC4)c3c2)cc1` [Compound 191] the figure was more than 10 µM; with `N#Cc1ccc(-c2ccc3nc(NCCc4ccc(F)cc4)cc(C(=O)N4CCC[C@H]4CN4CCCC4)c3c2)cc1` [Compound 192], more than 10 µM; with `N#Cc1ccc(-c2ccc3nc(NCCc4ccc(Cl)cc4Cl)cc(C(=O)N4CCC[C@H]4CN4CCCC4)c3c2)cc1` [Compound 193], more than 10 µM.

`N#Cc1ccc(-c2ccc3nc(NCCc4cccc(F)c4)cc(C(=O)N4CCC[C@H]4CN4CCCC4)c3c2)cc1` [Compound 194]: the IC50 is more than 10 µM. For the compound `N#Cc1ccc(-c2ccc3nc(NCc4cc(F)cc(C(F)(F)F)c4)cc(C(=O)N4CCC[C@H]4CN4CCCC4)c3c2)cc1` [Compound 195], the IC50 was more than 10 µM.

As to `N#Cc1ccc(-c2ccc3nc(NCCc4cccc(Cl)c4)cc(C(=O)N4CCC[C@H]4CN4CCCC4)c3c2)cc1` [Compound 196], the IC50 was more than 10 µM. With `COc1cccc(CCNc2cc(C(=O)N3CCC[C@H]3CN3CCCC3)c3cc(-c4ccc(C#N)cc4)ccc3n2)c1` [Compound 197] the figure was more than 10 µM.

Regarding `N#Cc1ccc(-c2ccc3nc(NCc4ccc(F)cc4F)cc(C(=O)N4CCC[C@H]4CN4CCCC4)c3c2)cc1` [Compound 198], the IC50 was more than 10 µM. To `C[C@@H](c1ccccc1)N(C)c1cc(C(=O)N2CCC[C@H]2CN2CCCC2)c2cc(-c3ccc(C#N)cc3)ccc2n1` [Compound 199] belongs more than 10 µM; to `C[C@H](c1ccccc1)N(C)c1cc(C(=O)N2CCC[C@H]2CN2CCCC2)c2cc(-c3ccc(C#N)cc3)ccc2n1` [Compound 200], more than 10 µM; to `C[C@@H](Nc1cc(C(=O)N2CCC[C@H]2CN2CCCC2)c2cc(-c3ccc(C#N)cc3)ccc2n1)c1ccccc1` [Compound 201], more than 10 µM. To `COc1ccc([C@@H](C)Nc2cc(C(=O)N3CCC[C@H]3CN3CCCC3)c3cc(-c4ccc(C#N)cc4)ccc3n2)cc1` [Compound 202] belongs more than 10 µM; to `COc1cccc([C@@H](C)Nc2cc(C(=O)N3CCC[C@H]3CN3CCCC3)c3cc(-c4ccc(C#N)cc4)ccc3n2)c1` [Compound 203], more than 10 µM. To `COc1cccc([C@H](C)Nc2cc(C(=O)N3CCC[C@H]3CN3CCCC3)c3cc(-c4ccc(C#N)cc4)ccc3n2)c1` [Compound 204] belongs more than 10 µM. Turning to `N#Cc1ccc(-c2ccc3nc(N[C@@H]4CCCc5ccccc54)cc(C(=O)N4CCC[C@H]4CN4CCCC4)c3c2)cc1` [Compound 205], the IC50 is more than 10 µM.

Turning to `N#Cc1ccc(-c2ccc3nc(N[C@H]4CCCc5ccccc54)cc(C(=O)N4CCC[C@H]4CN4CCCC4)c3c2)cc1` [Compound 206], the half-inhibitory concentration (IC50) was more than 10 µM.

As to `C[C@@H](Nc1cc(C(=O)N2CCC[C@H]2CN2CCCC2)c2cc(-c3ccc(C#N)cc3)ccc2n1)c1ccc2ccccc2c1` [Compound 207], the IC50 is more than 10 µM. With `CC(Nc1cc(C(=O)N2CCC[C@H]2CN2CCCC2)c2cc(-c3ccc(C#N)cc3)ccc2n1)c1ccc2ccccc2c1` (stereo partly shown) [Compound 208] the figure was more than 10 µM; with `N#Cc1ccc(-c2ccc3nc(N[C@@H]4c5ccccc5C[C@@H]4O)cc(C(=O)N4CCC[C@H]4CN4CCCC4)c3c2)cc1` [Compound 209], more than 10 µM; with `N#Cc1ccc(-c2ccc3nc(N(Cc4ccccc4)Cc4ccccc4)cc(C(=O)N4CCC[C@H]4CN4CCCC4)c3c2)cc1` [Compound 210], more than 10 µM. With `CN(Cc1ccccc1Cl)c1cc(C(=O)N2CCC[C@H]2CN2CCCC2)c2cc(-c3ccc(C#N)cc3)ccc2n1` [Compound 211] the figure was more than 10 µM. To `N#Cc1ccc(-c2ccc3nc(N(CCO)Cc4ccccc4)cc(C(=O)N4CCC[C@H]4CN4CCCC4)c3c2)cc1` [Compound 212] belongs more than 10 µM; to `N#Cc1ccc(-c2ccc3nc(N(CCCO)Cc4ccccc4)cc(C(=O)N4CCC[C@H]4CN4CCCC4)c3c2)cc1` [Compound 213], more than 10 µM; to `C[C@@H](Nc1cc(C(=O)N2CCC[C@H]2CN2CCCC2)c2cc(-c3ccc(C#N)cc3)ccc2n1)[C@@H](O)c1ccccc1` [Compound 214], more than 10 µM. As to `N#Cc1ccc(-c2ccc3nc(N4CCc5[nH]c6c(F)cccc6c5C4)cc(C(=O)N4CCC[C@H]4CN4CCCC4)c3c2)cc1` [Compound 215], the IC50 was more than 10 µM.

Turning to `N#Cc1ccc(-c2ccc3nc(NCc4cccc5ccccc45)cc(C(=O)N4CCC[C@H]4CN4CCCC4)c3c2)cc1` [Compound 216], the 50% inhibitory concentration (IC50) is more than 10 µM.

Regarding `N#Cc1ccc(-c2ccc3nc(NCc4cccc(-c5ccccc5)c4)cc(C(=O)N4CCC[C@H]4CN4CCCC4)c3c2)cc1` [Compound 217], the IC50 is more than 10 µM.

Regarding `C[C@H](c1cccc2ccccc12)N(C)c1cc(C(=O)N2CCC[C@H]2CN2CCCC2)c2cc(-c3ccc(C#N)cc3)ccc2n1` [Compound 218], the IC50 was more than 10 µM. With `C[C@@H](c1cccc2ccccc12)N(C)c1cc(C(=O)N2CCC[C@H]2CN2CCCC2)c2cc(-c3ccc(C#N)cc3)ccc2n1` [Compound 219] the figure was more than 10 µM.

Take `N#Cc1ccc(-c2ccc3nc(NCCc4ccc(Cl)c(Cl)c4)cc(C(=O)N4CCC[C@H]4CN4CCCC4)c3c2)cc1` [Compound 220]: the IC50 was more than 10 µM. With `C[C@H](Nc1cc(C(=O)N2CCC[C@H]2CN2CCCC2)c2cc(-c3ccc(C#N)cc3)ccc2n1)c1ccc(Br)cc1` [Compound 221] the figure was more than 10 µM. With `CC(Nc1cc(C(=O)N2CCC[C@H]2CN2CCCC2)c2cc(-c3ccc(C#N)cc3)ccc2n1)c1ccc(Br)cc1` (stereo partly shown) [Compound 222], the IC50 is more than 10 µM. To `CC(Nc1cc(C(=O)N2CCC[C@H]2CN2CCCC2)c2cc(-c3ccc(C#N)cc3)ccc2n1)c1ccc(F)cc1` (stereo partly shown) [Compound 223] belongs more than 10 µM.

Source of the values: US20080119515A1, “Heterocyclic Kinase Inhibitors: Methods of Use and Synthesis” (priority 2003, published 2008).
